“Also recorded” adds a separate entry of the source.
Key:
[1] = test system: IL-6 secreted by mouse macrophages RAW264.7 induced by LPS; test: IL-6 secreted by LPS-induced RAW264.7 macrophages (ELISA); assay type: cell-based; conditions: LPS 100 ng/mL, 24 h; FIG. 5
Protocol: (§1) Effects of myricanol derivatives on the expression of inflammatory factors such as IL-6, TNF-α, PEG2 secreted by a mouse macrophage cell strain RAW 264.7 induced by bacterial lipopolysaccharide (hereinafter referred to as LPS) stimulus: A pre-prepared cell suspension was inoculated in a 96-well plate at 15000 cells/well and 100 μl/well and cultured overnight in an incubator with 5% CO2 at 37° C. At 80% cell confluence, the original culture medium was discarded, and each well was added with 100 μl of prepared drug solution to be tested with a different concentration, cultured for 1 h, and then added with a LPS solution, where the final concentration of LPS in the culture system was 100 ng/mL. Each concentration was set with 3 parallel wells, and a cell control group (no drug and no solvent) and a blank medium control group (no cells, a well for zero adjustment) were set. They were cultured for another 24 h. Cell culture supernatants were aspirated, and an R&D ELISA detection kit (M6000B; MTA00B; VAL601) was used for detecting the expression of the inflammatory factors such as IL-6, TNF-α, and PEG2 in each group. Cell proteins were collected, and a […] method was used for detecting COX-2 protein expression in each group.

[2] = test system: PGE2 secreted by mouse macrophages RAW264.7 induced by LPS; test: PGE2 secreted by LPS-induced RAW264.7 macrophages (ELISA); assay type: cell-based; conditions: for PGE2: LPS alone 1154.90 ± 84.20, control −407.37 ± 57.67
Protocol: as §1

[3] = test system: COX2 protein expressed by mouse macrophages RAW264.7; test: COX2 protein expression in LPS-induced RAW264.7 macrophages (blot); assay type: cell-based; conditions: FIG. 8
Protocol: as §1

[4] = test system: IBD model induced by 2.5% TNBS; test: TNBS-induced rat in vivo model of IBD; parameters: species or system SD rats; conditions: 6 days; for injuries of colorectal ulcers (anatomical and pathological HE): FIGS. 20 and 21
Protocol: Test method: female SPF-grade SD rats each with a weight of 180-200 g were subjected to adaptive feeding for 5-7 days, and then started to be modeled. At the time of modeling, the rats were anesthetized, a pre-labeled cat catheter was inserted through the anus into the colon for 8 cm, 250 μL of 2.5% (wt/vol) TNBS solution was slowly injected into the cavity of the colon, the rat was inverted for 1 min, and then the catheter was slowly removed from the intestine. The rat was hold with its head down towards for 1 min and then put back to a cage. Rats in a blank group were administered with the same volume of normal saline. On the second day of modeling, i.e., D1, the medicament was administered through intragastric administration for 6 continuous days.
Detection indexes: the weight of each group of animals was observed and recorded every day, and feces of each animal were collected at the beginning of experiments to detect occult blood in the feces. If obvious blood in the feces cannot be determined, an occult blood detection kit was used for confirming the occult blood, and the result was recorded on an experimental record paper and photographed. After the end of the experiments, the fecal traits, occult blood, and weight change rate of each animal were scored, and the scores were added to give a DAI score for each animal. Colorectal tissue samples of the animals were collected and a wet weight was weighted for the subsequent pathological detection.

[5] = acute toxicity, single oral dose; assay type: in vivo; conditions: both sexes, SD, rat, in vivo, po; single intragastric administration; read-out: MTD (tolerance to acute toxicity of a single dosage)
Excerpt: (§2) Trial method: 30 SD rats, half male and half female, were used. The average weight was 160-200 g for female rats and 180-220 g for male rats when grouped. An individual weight should be within ±20% of the average weight. Before the test, animals needed to accommodate to the environment for at least 5 days, and healthy rats (female rats should be not pregnant) were selected as test animals. Matter detected during the accommodation period mainly was: whether the rats were consistent with quality indexes required in the order; detection of general conditions; and whether the weight was within the weight range required by the test. Unqualified abnormal animals were excluded from the test. A single dosage was orally administered to rats at a low, medium, or high dose. […] A control group was set with the oral administration of the same volume of solvent.
(§3) The rats were observed about 0-2 h and 4-6 h after each administration. If a toxicity symptom occurs, the rats may be observed more times. (2) Gross anatomical observation: on the 14th day of the test, all surviving rats in each group were dissected and observed, and for administration sites and gross dissection, abnormal organs and tissues which were observed and found to be potentially related to test samples were photographed and recorded. (3) Disposal of dying animals: status of rats and observation time were recorded, and their weights were measured. (4) Disposal of dead animals: the time of death or when a rat was found dead were recorded. The rat was measured for weight before quickly dissected for gross observation and speculated for a cause of death.

SD rats = test: acute toxicity, single oral dose; assay type: in vivo; conditions: single intragastric administration, 14 days observation
Excerpt: as §2, §3

COc1c2cc(c(O)c1OC)CCCCC(OS(=O)(=O)O)CCc1ccc(O)c-2c1 (stereo not shown) [compound H, 11-sulfonyloxy myricanol]
inhibition of LPS-induced IL-6 secretion of RAW264.7 cells [1]: very strong effects of inhibiting | dose dependence of the activity for inhibiting PGE2 ([2]; FIG. 9): well dose-dependent | inhibition of PGE2 secreted by RAW264.7 induced by LPS ([2]; LPS 100 ng/mL, 24 h, FIGS. 7 and 9): significant effect of inhibiting PGE2; also recorded: strong ability to inhibit | PGE2 ([2]; LPS + 10 μM): 804.30 ± 18.46 pg/mL | PGE2 ([2]; LPS + 20 μM): 604.66 ± 97.52 pg/mL | PGE2 ([2]; LPS + 30 μM): 448.16 ± 55.26 pg/mL | PGE2 ([2]; LPS + 40 μM): 289.30 ± 109.41 pg/mL | PGE2 ([2]; LPS + 60 μM): -82.01 ± 357.30 pg/mL | PGE2 ([2]; LPS + 80 μM): -338.14 ± 138.40 pg/mL | PGE2 inhibition compared with myricanol ([2]; dose of 20 μM, FIG. 9): better inhabitation effect than myricanol | COX2 protein expression inhibition compared with myricanol [3]: better inhabitation effects than myricanol | inhibition of protein expression of IBD-related COX2 [3]: can inhibit | colorectal wet weight (edema) ([4]; 12.5 mg/kg intragastric, no statistical difference, FIG. 15): trend of reducing the edema | area of colorectal ulcers ([4]; oral 12.5 mg/kg, FIG. 16): significantly reducing the area of colorectal ulcers | area of colorectal ulcers, efficacy compared with 5-ASA ([4]; oral 12.5 mg/kg, FIG. 16): slightly better efficacy than 5-aminosalicylic acid (5-ASA) | colorectal inflammation, efficacy compared with 5-ASA ([4]; oral 12.5 mg/kg, FIG. 17): substantially same efficacy as 5-aminosalicylic acid (5-ASA) | inflammation score of colorectal pathological HE ([4]; oral 12.5 mg/kg, FIG. 17, 12.5 mg/kg): significantly reducing the level of colorectal inflammation; also recorded: significantly improving the score of colorectal inflammation | colorectal total injuries, efficacy compared with 5-ASA ([4]; oral 12.5 mg/kg, FIG. 18): substantially same efficacy as 5-aminosalicylic acid (5-ASA) | score of total injuries of colorectal pathological HE ([4]; oral 12.5 mg/kg, FIG. 18, 12.5 mg/kg): significantly reducing the level of colorectal total injures; also recorded: significantly reducing the degree of overall colorectal injuries | injury score of colorectal ulcers, efficacy compared with 5-ASA ([4]; oral 12.5 mg/kg, FIG. 19): slightly better efficacy than 5-aminosalicylic acid (5-ASA) | score of ulcerative injuries of colorectal pathological HE ([4]; oral 12.5 mg/kg, FIG. 19, 12.5 mg/kg): significantly reducing the injury score of colorectal ulcers; also recorded: significantly reducing the severity of injuries | injuries of colorectal ulcers (anatomical and pathological HE) ([4]; oral 12.5 mg/kg): effect of reducing injuries of colorectal ulcers | injuries of colorectal ulcers (anatomical and pathological HE) ([4]; oral 25 mg/kg): effect of reducing injuries of colorectal ulcers | MTD at 14 days [5]: > 1500 mg/kg | Test Endpoint (toxic side effects) (SD rats; 100 mg/kg): No obvious toxic | Test Endpoint (toxic side effects) (SD rats; 300 mg/kg): No obvious toxic | Test Endpoint (toxic side effects) (SD rats; 1000 mg/kg): No obvious toxic | Test Endpoint (toxic side effects) (SD rats; 1500 mg/kg): No obvious toxic

From patent publication US11602514B2, “Medicament having anti-inflammatory bowel disease function, and preparation method therefor and application thereof” (SUZHOU PHARMAVAN CO., LTD, priority 2018, dated 2023)
